# Experiments:
# Ferritin = experiment: Labile iron inhibition test (iron release from ferritin by superoxide); type: biochemical
# Procedure: The tested mixture was irradiated with a fluorescent lamp at room temperature for 90 min. Labile iron was measured, as noted previously.
# [1] = Ferric-reducing/antioxidant power (FRAP) test; details: tested 0.1 to 5 mg/mL
# Procedure: The FRAP reagent proportions consisted of 1:1:10 (v/v/v) of TPTZ 10 mM solution in 40 mM HCl, FeCl3 20 mM, and acetate buffer pH 3.6, 0.3 M. Then, 1 mL of the tested sample was mixed with 2 mL of freshly prepared FRAP reagent. The mixtures were incubated for 30 min at 37 °C. The absorbance was conducted using a Varian CARY 50 Scan UV–VIS Spectrophotometer with a Cary 50 Microplate Reader Accessory (Varian, Inc., Walnut Creek, CA, USA), at 593 nm. Deionized water was used as a blank. FeSO4 was used for the calibration curve. The values of FRAP were expressed as µmol of Fe (II).
# [2] = DPPH free radical-scavenging test; details: tested 0.1 to 5 mg/mL
# Procedure: They were determined to be effective against 1,1-diphenyl-2, picrylhydrazyl radicals. The results of the study were compared with those of a previously reported method. […] The absorbance was conducted using a Varian CARY 50 Scan UV–VIS Spectrophotometer with a Cary 50 Microplate Reader Accessory (Varian, Inc., Walnut Creek, CA, USA).
# [3] = Nitric oxide radical (NO) scavenging test (Griess reaction)
# Procedure: In brief, 3 mL of the reaction mixture (2 mL of 10 mM sodium nitroprusside, 0.5 mL phosphate buffer saline, and 0.5 of tested samples). The mixture was incubated for 150 min at 25 °C. Then 0.5 mL of the mixture was mixed with 1 mL of (sulfanilic acid reagent: 0.33% in 20% glacial acetic acid). After 5 min, 1 mL of naphthyl ethylene diamine dihydrochloride 0.1% was added. After 30 min at room temperature, the absorbance was conducted using a Varian CARY 50 Scan UV–VIS Spectrophotometer with a Cary 50 Microplate Reader Accessory (Varian, Inc., Walnut Creek, CA, USA) at 540 nm. The nitrite percentage was determined by considering Equation 1 described above.
# [4] = Total antioxidant activity (TAC, phosphomolybdate); details: tested 0.1-5 mg/mL
# Procedure: In brief, 0.3 mL of a reagent composed of sodium phosphate 28 mM, sulphuric acid 0.6 M, and ammonium molybdate 4 mM were added to 0.1 mL tested samples and incubated at 95 °C for 90 min. After cooling, the mixture was measured at 695 nm using a Varian CARY 50 Scan UV–VIS Spectrophotometer with a Cary 50 Microplate Reader Accessory (Varian, Inc., Walnut Creek, CA, USA). A higher antioxidant capacity is correlated with a higher absorbance value.
# [5] = system: Bovine Serum Albumin (BSA)
# Procedure: Bovine Serum Albumin (BSA) was oxidized by AAPH using a method outlined earlier [18]. […] The control sample was without AAPH.
# Then the mixture was loaded and separated using SDS-PAGE 10% after reduction conditions for 5 min, at 100 °C. The free stained gels’ images were taken with a ChemiDoc MV gel documentation system (Bio-Rad, Hercules, CA, USA). The band intensity determined the protein damage amount for each band using Image Lab 4.1 Software version 6.1.0 (Bio-Rad, Hercules, CA, USA).
Compound,percent inhibition of iron release from ferritin (Ferritin; at 10 μg),percent inhibition of iron release from ferritin (Ferritin; at 50 μg),percent inhibition of iron release from ferritin (Ferritin; at 100 μg),"IC50, Labile Iron (Ferritin; iron release from ferritin by superoxide)","Free Radical Inhibition Activity IC50, FRAP [1]","Free Radical Inhibition Activity IC50, DPPH [2]",scavenging capacity for NO ([3]; 0.5 mg/mL),scavenging capacity for NO ([3]; 1 mg/mL),scavenging capacity for NO ([3]; 3 mg/mL),scavenging capacity for NO ([3]; 5 mg/mL),scavenging capacity for NO ([3]; starting value (lowest concentration)),"IC50, Nitric oxide ([3]; tested 0.1 to 5 mg/mL)","IC50, Total antioxidant Capacity [4]",IC50 [5]
"O=C(O)c1cc(O)c(O)c(O)c1 [Gallic acid, gallic acid]",50.68 ± 0.18%,59.22 ± 0.81%,68.55 ± 0.38%,4.86 ± 0.23 µg/mL,–,–,–,–,–,–,–,–,–,–
C[C@@H]1O[C@@H](OC[C@H]2O[C@@H](Oc3c(-c4ccc(O)c(O)c4)oc4cc(O)cc(O)c4c3=O)[C@H](O)[C@@H](O)[C@@H]2O)[C@H](O)[C@H](O)[C@H]1O [Rutin],85.32 ± 0.56%,90.30 ± 0.01%,96.65 ± 0.01%,–,533 ± 22.85 µg/mL,–,–,–,–,–,–,–,–,–
Cc1c(C)c2c(c(C)c1O)CCC(C)(C(=O)O)O2 (centres unmarked) [Trolox],39.33 ± 0.54%,84.79 ± 3.00%,87.87 ± 1.87%,–,–,–,–,–,–,–,–,–,–,–
"O=C1O[C@H]([C@@H](O)CO)C(O)=C1O [VC, vitamin C]",–,–,–,–,–,880 ± 12.89 µg/mL,40.92%,29.57%,55.12%,56.55%,59.10%,2710 ± 65.98 µg/mL,3005.29 ± 427.80 µg/mL,< 100 µg/mL
